Experimental findings from PMC9118212 (ACS Omega, 2022) are described below.

The test system of assay [1] is DNA-1 (5′-GTA AGA TGA TTC-3′ and 5′-GAA TCA TCT TAC-3′). The format is binding. The note with it: pH 7.2.
The subject of assay [2] is LS-180 (colon cancer). Description: MTT cytotoxicity assay, LS-180. The class given is cell-based. The note with it: Homo sapiens, LS180, 48 h, read-out: IC50 ± SD.
Assay [3] concerns ARPE-19 (retinal epithelium), nontumor. Description: MTT cytotoxicity assay, ARPE-19. The note with it: Homo sapiens, ARPE-19, 48 h, read-out: IC50 ± SD. The class given is cell-based.
The subject of assay [4] is plasmid DNA pCR 2.1. Description: Electrophoretic mobility shift assay. The class given is binding. The note with it: 100 ng plasmid, 0.1 nmol compound, 2 h at 37 °C, 1% agarose gel.
The test system of assay [5] is HeLa (cervical cancer). In words: MTT cytotoxicity assay, HeLa. The settings on record: Homo sapiens, 48 h, read-out: IC50 ± SD. The class given is cell-based.
In assay [6] the test system is A-549 (lung cancer). Description: MTT cytotoxicity assay, A-549. The note with it: Homo sapiens, A549, 48 h, read-out: IC50 ± SD. The format is cell-based.

Several values for one entry are separate records, joined by “and”; a condition that tells them apart may be missing. Identical values can stand only once.

As to `COc1ccc2cc1Oc1ccc(cc1)C[C@H]1c3cc(c(OC)cc3CCN1C)Oc1c(OC)c(OC)cc3c1[C@H](C2)N(C)CC3` [tetrandrine, S,S-(+)-tetrandrine], in assay [1], the “Stern–Volmer constant (KSV)” value is 7.34 × 10^3. Further, the concentration for half-maximal inhibition (IC50) in assay [2] is 6.43 µg/mL and 10.3 µM; in assay [3], 8.45 µg/mL and 13.6 µM; in assay [5], 16.6 µg/mL and 26.7 µM; in assay [6], 12.1 µg/mL and 19.4 µM. The “Effect on electrophoretic mobility of plasmid DNA” value in assay [4] is “reduce the mobility of the plasmid”.
